Values belong to the compound of their own block, whether it stands above or below them.
Assays:
[1] = mouse, in vivo
Procedure: All animal procedures were approved by the Institutional Animal Care and Use Committee at University of Texas Health Science at Houston in accordance with all relevant guidelines. Healthy, female NSG mice were used for in vivo experiments. CDN nanoparticles were administered by direct infusion into the cisternal magna. Briefly, mice were anesthetized with isoflurane (2%) and mounted on a stereotaxic frame (Kopf Instruments, Tujunga, CA, USA). With the head tilted forward, an incision was made across the back of the neck and muscles were gentle retracted to expose the atlanto-occipal membrane. A Hamilton syringe (29 gauge needle, 30° bevel tip) in a 2 uL volume delivered over 1 minute at an injection dept of 1 mm. The needle was left in place for an additional 2 minutes to prevent backflow. All animals received a subcutaneous injection of buprenorphine (1 mg/kg) prior to surgery, and other analgesics to control pain. For MTD studies, panobinostat loaded CDN-4 nanoparticles were administered at increasing concentrations. […] For pharmacokinetic studies, mice received CDN-4 nanoparticles at a dose of 560 ug panobinostat and euthanized at specified time points (1, 4, 8, 24, and 48 hours after nanoparticle administration, n=5 mice per time point). One mouse in the 24 hour time point died during surgery, leaving n=4 for that experimental group. […]

[2] = system: GL261 cells; assay: in vitro GL261 cell viability assay (CellTiter-Glo); assay type: cell-based, murine; conditions: 72 hours of incubation, CDN-4 21% drug loaded
Procedure: For IC50 experiments, GL261 cells were seeded at […] into 96 well plates containing Dulbecco's Modified Eagle Medium (DMEM) and 10% Fetal Bovine Serum (FBS). Cells were given 4 hours to adhere prior to drug treatments. Free panobinostat, drug-loaded and blank CDN-4 (21% drug loaded) were dispersed in 2.5% DMSO in cell culture media at 10 mg/mL drug concentration. Equivalent doses were added to the 96 well plates at 16 serial dilutions with concentrations from 0-70 μM and incubated at 37° C. with 5% CO2 for 72 hours. Cell viability was determined with an IC50 value obtained from a CellTiter-Glo Luminescence assay and calculated using GraphPad Prism (San Diego, CA USA). For uptake experiments, GL261 cells were seeded at 90,000 cells/1 mL into 48 well plates containing DMEM and 10% FBS. Panobinostat loaded CDN-4 nanoparticles (250 ug) were incubated with cells for 48 hours, after which cells were thoroughly washed, fixed, and counterstained with DAPI. Images were collected on an upright Nilkon Ti2 microscope.

[3] = background statement; cited from earlier work
[4] = experimental drug loading in CDN nanoparticles, quantified by absorbance; assay type: physicochemical; conditions: for drug loading in CDNs 1-3: theoretical loading of 10% (w/w)
Procedure: Panobinostat-loaded nanoparticles were formulated by doping a given concentration of the drug with CDN in 2.5 vol % DMSO-aqueous medium. Panobinostat was added at different theoretical loadings, and the amount of panobinostat incorporated into the network after thorough washing was quantified by absorbance.
An aqueous dispersion (2.0 mL) of blank CDN nanoparticles (10 mg/mL) was doped with DMSO (50 uL) solution of panobinostat (40 mg/mL; 10% theoretical loading). The aqueous dispersion was left to agitate for 18 h, and subjected to concentration via ultrafiltration through Amicon Ultra-15 centrifugal filters (3 kDa MWCO, […]) for 4, 20 mins spins at 5000 RCF. Aliquots were frozen and lyophilized for later studies.
Drug loading was quantified by absorbance ([…] for quisinostat, panobinostat and dacinostat; 285 nm for givinostat; 365 nm for camptothecin; 550 nm for Nile Red) on a Tecan plate reader. Lyophilized nanoparticles were dissolved at 5 mg/ml in DMSO. Samples were plated in triplicate ([…], nanoparticles and 10 μL DMSO per well) in a clear, flat bottom 96-well assay plate. A control curve was constructed in technical triplicate by adding 40 μL blank nanoparticles per well and spiking with 10 μL of known drug concentration in DMSO. Experimental drug loading was calculated as mass of drug/mass of nanoparticles (w/w %). 40 μL of bortezomib loaded nanoparticles (5 mg/ml aqueous solution) were extracted with 100 μL of ethylacetate. The ethylacetate layer was collected and dried under nitrogen. The contents were dissolved in 40 μL of DMSO and plated in triplicate. A control curve was constructed in technical triplicate by spiking with 10 μL of known drug concentration in DMSO. Absorbance was measured at 285 nm. Experimental drug loading was calculated as mass of drug/mass of nanoparticles (w/w %).

Structure (SMILES): Cc1[nH]c2ccccc2c1CCNCc1ccc(/C=C/C(=O)NO)cc1 [panobinostat]
panobinostat in plasma [1]: undetectable | IC50 ([2]; Mus musculus, GL261): 170 nM | water solubility [3]: poorly water soluble

drug loading in CDNs 1-3 [4]: loaded particularly well
Structure (SMILES): CC(C)C[C@H](NC(=O)[C@H](Cc1ccccc1)NC(=O)c1cnccn1)B(O)O [bortezomib]

Structure (SMILES): Cc1[nH]c2ccccc2c1CCNCc1ccc(/C=C/C(=O)NO)cc1 [non-CDN-formulated Pb]
IC50 [2]: 230 nM

drug loading in CDNs 1-3 [4]: loaded particularly well
Structure (SMILES): O=C(/C=C/c1ccc(CN(CCO)CCc2c[nH]c3ccccc23)cc1)NO [dacinostat]

drug loading in CDNs 1-3 [4]: loaded particularly well
Structure (SMILES): Cn1cc(CNCC2CCN(c3ncc(C(=O)NO)cn3)CC2)c2ccccc21 [quisinostat]

experimental loading with all the CDNs ([4]; control hydrophilic drug, data not shown): poor experimental loading
Structure (SMILES): Nc1ccn([C@@H]2O[C@H](CO)[C@@H](O)[C@@H]2O)c(=O)n1 [cytarabine]

drug loading in CDNs 1-3 [4]: loaded particularly well
Structure (SMILES): CCN(CC)Cc1ccc2cc(COC(=O)Nc3ccc(C(=O)NO)cc3)ccc2c1 [givinostat]
